Assay results published in ChEMBL document CHEMBL5608113, “Targeting of CAF-induced therapy resistance in CRC organoid-stroma co-cultures” (2024).

What follows are compounds tested on Colon cancer organoid (assay: Targeting of F14 CAF-induced therapy resistance in O14 CRC organoid-stroma co-culture. Cell viability is reported without Gefitinib.). Details: Homo sapiens, Concentration 10 uM; read-out: Cell Viability.
Assay type: functional, Homo sapiens

Compound	viability at 10 µM [%]
C[C@@H](c1cccc(CN)c1)n1cc(Cl)cc(C(N)=O)c1=N	106
Cc1cccc(-c2cnc3occ(-c4ccc(C(=O)O)c(C5CCCC5)c4)c3c2)c1	112
CC(=O)N1CCC(c2ccc(C(=O)NC3=NCCN3)cc2C(F)(F)F)CC1 [BI 0054]	46.7
COc1cccc2c1c(O)c(C(=O)N(C)c1ccc(C(F)(F)F)cc1)c(=O)n2C [TASQUINIMOD]	80.1
CN(C)C(=O)Cn1cc(-c2nc(C3(c4ccc(-c5cnc(N)nc5)cc4)CC3)no2)cn1 [BI 0153]	110
CCCCNc1ncc(-c2ccc(CN3CCOCC3)cn2)c(N[C@H]2CC[C@H](O)CC2)n1	9.12
Cc1c(NC(=O)c2ccc(C(C)(C)C)cc2)cccc1-c1cn(C)c(=O)c(Nc2ccc(C(=O)N3CCOCC3)cc2)n1	82.5
CC(=O)N1CCC(c2ccc(C(=O)NC(=N)N)cc2C(F)(F)F)CC1 [BI 9627]	102
Cc1cc(C)cc(C(=O)NOCCCCCC(=O)NO)c1	28.3
CC[C@H](CC(=O)O)n1c(=O)c2ncccc2n(Cc2cn(C)c3cc(C)cc(C)c23)c1=O [BI-1942]	93.3
CCc1cc2cc(NS(=O)(=O)c3ccc(C#N)cc3)ccc2n(CC)c1=O	106
FC(F)(F)c1ccc2c(c1)nc(-c1cccnc1)n2C1CC1 [MSD-CYP11B2-Negative-control]	65.1
COc1c(C)cc(NC(=O)c2nn(Cc3ccc(F)cc3)c3c2CN(C(=O)c2ccc[nH]2)C[C@]3(C)C(N)=O)cc1C	121
COc1cc(Nc2nc(C)cc(-c3cnn4nc(OC)ccc34)n2)cc(C(F)(F)F)c1	115
CC(=O)Nc1c(F)cc(C(=O)N[C@H]2CC[C@H](O)CC2)cc1O[C@@H](C)c1ccccc1 [GSK046]	121
C[C@H](NC(=O)c1cnc2n1[C@](C)(Cc1ccc(C#N)cc1)C(=O)N2c1cc(Cl)c(F)c(Cl)c1)C(=O)NC1(c2ccccn2)CC1 [BI 1950]	125
CN(C)C(=O)/C(C#N)=C/c1ccc(-c2nc3cnc4c(ccn4C)c3n2C2CCCCC2)o1	107
Cn1cc(-c2ccc3occ(-c4ccccc4-c4ccccc4)c3n2)cn1	115
C[C@@H](NC(=O)Nc1cc2[nH]ncc2c(CO)n1)c1ccccc1 [ERKi]	49.2
COc1cc2c(cc1OCCCN1CCCC1)N=C(N)C21CCC1	82.9

These compounds were tested on Colon cancer organoid (assay: Targeting of F14 CAF-induced therapy resistance in O14 CRC organoid-stroma co-culture. Cell viability is reported with Gefitinib.). Details: Homo sapiens, Concentration 10 uM; read-out: Cell Viability.
Assay type: functional, Homo sapiens

Compound	viability at 10 µM [%]
C[C@@H](c1cccc(CN)c1)n1cc(Cl)cc(C(N)=O)c1=N	33.4
Cc1cccc(-c2cnc3occ(-c4ccc(C(=O)O)c(C5CCCC5)c4)c3c2)c1	52.4
CC(=O)N1CCC(c2ccc(C(=O)NC3=NCCN3)cc2C(F)(F)F)CC1 [BI 0054]	17.4
COc1cccc2c1c(O)c(C(=O)N(C)c1ccc(C(F)(F)F)cc1)c(=O)n2C [TASQUINIMOD]	61.6
CN(C)C(=O)Cn1cc(-c2nc(C3(c4ccc(-c5cnc(N)nc5)cc4)CC3)no2)cn1 [BI 0153]	82.1
CCCCNc1ncc(-c2ccc(CN3CCOCC3)cn2)c(N[C@H]2CC[C@H](O)CC2)n1	3.91
Cc1c(NC(=O)c2ccc(C(C)(C)C)cc2)cccc1-c1cn(C)c(=O)c(Nc2ccc(C(=O)N3CCOCC3)cc2)n1	23.8
CC(=O)N1CCC(c2ccc(C(=O)NC(=N)N)cc2C(F)(F)F)CC1 [BI 9627]	42.9
Cc1cc(C)cc(C(=O)NOCCCCCC(=O)NO)c1	31.1
CC[C@H](CC(=O)O)n1c(=O)c2ncccc2n(Cc2cn(C)c3cc(C)cc(C)c23)c1=O [BI-1942]	37.9
CCc1cc2cc(NS(=O)(=O)c3ccc(C#N)cc3)ccc2n(CC)c1=O	84
FC(F)(F)c1ccc2c(c1)nc(-c1cccnc1)n2C1CC1 [MSD-CYP11B2-Negative-control]	32.7
COc1c(C)cc(NC(=O)c2nn(Cc3ccc(F)cc3)c3c2CN(C(=O)c2ccc[nH]2)C[C@]3(C)C(N)=O)cc1C	52.8
COc1cc(Nc2nc(C)cc(-c3cnn4nc(OC)ccc34)n2)cc(C(F)(F)F)c1	52.6
CC(=O)Nc1c(F)cc(C(=O)N[C@H]2CC[C@H](O)CC2)cc1O[C@@H](C)c1ccccc1 [GSK046]	25.9
C[C@H](NC(=O)c1cnc2n1[C@](C)(Cc1ccc(C#N)cc1)C(=O)N2c1cc(Cl)c(F)c(Cl)c1)C(=O)NC1(c2ccccn2)CC1 [BI 1950]	44.4
CN(C)C(=O)/C(C#N)=C/c1ccc(-c2nc3cnc4c(ccn4C)c3n2C2CCCCC2)o1	63.9
Cn1cc(-c2ccc3occ(-c4ccccc4-c4ccccc4)c3n2)cn1	75.6
C[C@@H](NC(=O)Nc1cc2[nH]ncc2c(CO)n1)c1ccccc1 [ERKi]	10.3
COc1cc2c(cc1OCCCN1CCCC1)N=C(N)C21CCC1	46.9

What follows are compounds tested on Colon cancer organoid (assay: Targeting of F14 CAF-induced therapy resistance in O23 CRC organoid-stroma co-culture. Cell viability is reported without Gefitinib.). Details: Homo sapiens, Concentration 10 uM; read-out: Cell Viability.
Assay type: functional, Homo sapiens

Compound	viability at 10 µM [%]
C[C@@H](c1cccc(CN)c1)n1cc(Cl)cc(C(N)=O)c1=N	172
Cc1cccc(-c2cnc3occ(-c4ccc(C(=O)O)c(C5CCCC5)c4)c3c2)c1	111
CC(=O)N1CCC(c2ccc(C(=O)NC3=NCCN3)cc2C(F)(F)F)CC1 [BI 0054]	120
COc1cccc2c1c(O)c(C(=O)N(C)c1ccc(C(F)(F)F)cc1)c(=O)n2C [TASQUINIMOD]	99.2
CN(C)C(=O)Cn1cc(-c2nc(C3(c4ccc(-c5cnc(N)nc5)cc4)CC3)no2)cn1 [BI 0153]	171
CCCCNc1ncc(-c2ccc(CN3CCOCC3)cn2)c(N[C@H]2CC[C@H](O)CC2)n1	18.1
Cc1c(NC(=O)c2ccc(C(C)(C)C)cc2)cccc1-c1cn(C)c(=O)c(Nc2ccc(C(=O)N3CCOCC3)cc2)n1	56.1
CC(=O)N1CCC(c2ccc(C(=O)NC(=N)N)cc2C(F)(F)F)CC1 [BI 9627]	109
Cc1cc(C)cc(C(=O)NOCCCCCC(=O)NO)c1	193
CC[C@H](CC(=O)O)n1c(=O)c2ncccc2n(Cc2cn(C)c3cc(C)cc(C)c23)c1=O [BI-1942]	113
CCc1cc2cc(NS(=O)(=O)c3ccc(C#N)cc3)ccc2n(CC)c1=O	127
FC(F)(F)c1ccc2c(c1)nc(-c1cccnc1)n2C1CC1 [MSD-CYP11B2-Negative-control]	150
COc1c(C)cc(NC(=O)c2nn(Cc3ccc(F)cc3)c3c2CN(C(=O)c2ccc[nH]2)C[C@]3(C)C(N)=O)cc1C	81.4
COc1cc(Nc2nc(C)cc(-c3cnn4nc(OC)ccc34)n2)cc(C(F)(F)F)c1	119
CC(=O)Nc1c(F)cc(C(=O)N[C@H]2CC[C@H](O)CC2)cc1O[C@@H](C)c1ccccc1 [GSK046]	100
C[C@H](NC(=O)c1cnc2n1[C@](C)(Cc1ccc(C#N)cc1)C(=O)N2c1cc(Cl)c(F)c(Cl)c1)C(=O)NC1(c2ccccn2)CC1 [BI 1950]	104
CN(C)C(=O)/C(C#N)=C/c1ccc(-c2nc3cnc4c(ccn4C)c3n2C2CCCCC2)o1	83.6
Cn1cc(-c2ccc3occ(-c4ccccc4-c4ccccc4)c3n2)cn1	153
C[C@@H](NC(=O)Nc1cc2[nH]ncc2c(CO)n1)c1ccccc1 [ERKi]	14.3
COc1cc2c(cc1OCCCN1CCCC1)N=C(N)C21CCC1	122

Each compound was assayed on Colon cancer organoid (assay: Targeting of F14 CAF-induced therapy resistance in O23 CRC organoid-stroma co-culture. Cell viability is reported with Gefitinib.). Details: Homo sapiens, Concentration 10 uM; read-out: Cell Viability.
Assay type: functional, Homo sapiens

Compound	viability at 10 µM [%]
C[C@@H](c1cccc(CN)c1)n1cc(Cl)cc(C(N)=O)c1=N	51
Cc1cccc(-c2cnc3occ(-c4ccc(C(=O)O)c(C5CCCC5)c4)c3c2)c1	75.6
CC(=O)N1CCC(c2ccc(C(=O)NC3=NCCN3)cc2C(F)(F)F)CC1 [BI 0054]	54.5
COc1cccc2c1c(O)c(C(=O)N(C)c1ccc(C(F)(F)F)cc1)c(=O)n2C [TASQUINIMOD]	47.3
CN(C)C(=O)Cn1cc(-c2nc(C3(c4ccc(-c5cnc(N)nc5)cc4)CC3)no2)cn1 [BI 0153]	48.9
CCCCNc1ncc(-c2ccc(CN3CCOCC3)cn2)c(N[C@H]2CC[C@H](O)CC2)n1	12
Cc1c(NC(=O)c2ccc(C(C)(C)C)cc2)cccc1-c1cn(C)c(=O)c(Nc2ccc(C(=O)N3CCOCC3)cc2)n1	54
CC(=O)N1CCC(c2ccc(C(=O)NC(=N)N)cc2C(F)(F)F)CC1 [BI 9627]	53.2
Cc1cc(C)cc(C(=O)NOCCCCCC(=O)NO)c1	220
CC[C@H](CC(=O)O)n1c(=O)c2ncccc2n(Cc2cn(C)c3cc(C)cc(C)c23)c1=O [BI-1942]	60.8
CCc1cc2cc(NS(=O)(=O)c3ccc(C#N)cc3)ccc2n(CC)c1=O	73.6
FC(F)(F)c1ccc2c(c1)nc(-c1cccnc1)n2C1CC1 [MSD-CYP11B2-Negative-control]	69.7
COc1c(C)cc(NC(=O)c2nn(Cc3ccc(F)cc3)c3c2CN(C(=O)c2ccc[nH]2)C[C@]3(C)C(N)=O)cc1C	66.4
COc1cc(Nc2nc(C)cc(-c3cnn4nc(OC)ccc34)n2)cc(C(F)(F)F)c1	68.9
CC(=O)Nc1c(F)cc(C(=O)N[C@H]2CC[C@H](O)CC2)cc1O[C@@H](C)c1ccccc1 [GSK046]	55.8
C[C@H](NC(=O)c1cnc2n1[C@](C)(Cc1ccc(C#N)cc1)C(=O)N2c1cc(Cl)c(F)c(Cl)c1)C(=O)NC1(c2ccccn2)CC1 [BI 1950]	52.2
CN(C)C(=O)/C(C#N)=C/c1ccc(-c2nc3cnc4c(ccn4C)c3n2C2CCCCC2)o1	53.6
Cn1cc(-c2ccc3occ(-c4ccccc4-c4ccccc4)c3n2)cn1	89.5
C[C@@H](NC(=O)Nc1cc2[nH]ncc2c(CO)n1)c1ccccc1 [ERKi]	4.5
COc1cc2c(cc1OCCCN1CCCC1)N=C(N)C21CCC1	55.4

What follows are compounds tested on Colon cancer organoid (assay: Targeting of F14 CAF-induced therapy resistance in O23 CRC organoid-stroma co-culture. Cell viability is reported with SN-38.). Details: Homo sapiens, Concentration 10 uM; read-out: Cell Viability.
Assay type: functional, Homo sapiens

Compound	viability at 10 µM [%]
C[C@@H](c1cccc(CN)c1)n1cc(Cl)cc(C(N)=O)c1=N	99.7
Cc1cccc(-c2cnc3occ(-c4ccc(C(=O)O)c(C5CCCC5)c4)c3c2)c1	66.7
CC(=O)N1CCC(c2ccc(C(=O)NC3=NCCN3)cc2C(F)(F)F)CC1 [BI 0054]	74.4
COc1cccc2c1c(O)c(C(=O)N(C)c1ccc(C(F)(F)F)cc1)c(=O)n2C [TASQUINIMOD]	83
CN(C)C(=O)Cn1cc(-c2nc(C3(c4ccc(-c5cnc(N)nc5)cc4)CC3)no2)cn1 [BI 0153]	98.3
CCCCNc1ncc(-c2ccc(CN3CCOCC3)cn2)c(N[C@H]2CC[C@H](O)CC2)n1	28.9
Cc1c(NC(=O)c2ccc(C(C)(C)C)cc2)cccc1-c1cn(C)c(=O)c(Nc2ccc(C(=O)N3CCOCC3)cc2)n1	56.9
CC(=O)N1CCC(c2ccc(C(=O)NC(=N)N)cc2C(F)(F)F)CC1 [BI 9627]	106
Cc1cc(C)cc(C(=O)NOCCCCCC(=O)NO)c1	130
CC[C@H](CC(=O)O)n1c(=O)c2ncccc2n(Cc2cn(C)c3cc(C)cc(C)c23)c1=O [BI-1942]	65
CCc1cc2cc(NS(=O)(=O)c3ccc(C#N)cc3)ccc2n(CC)c1=O	88.2
FC(F)(F)c1ccc2c(c1)nc(-c1cccnc1)n2C1CC1 [MSD-CYP11B2-Negative-control]	92.9
COc1c(C)cc(NC(=O)c2nn(Cc3ccc(F)cc3)c3c2CN(C(=O)c2ccc[nH]2)C[C@]3(C)C(N)=O)cc1C	73.7
COc1cc(Nc2nc(C)cc(-c3cnn4nc(OC)ccc34)n2)cc(C(F)(F)F)c1	59.6
CC(=O)Nc1c(F)cc(C(=O)N[C@H]2CC[C@H](O)CC2)cc1O[C@@H](C)c1ccccc1 [GSK046]	48.8
C[C@H](NC(=O)c1cnc2n1[C@](C)(Cc1ccc(C#N)cc1)C(=O)N2c1cc(Cl)c(F)c(Cl)c1)C(=O)NC1(c2ccccn2)CC1 [BI 1950]	85.8
CN(C)C(=O)/C(C#N)=C/c1ccc(-c2nc3cnc4c(ccn4C)c3n2C2CCCCC2)o1	46.5
Cn1cc(-c2ccc3occ(-c4ccccc4-c4ccccc4)c3n2)cn1	63.4
C[C@@H](NC(=O)Nc1cc2[nH]ncc2c(CO)n1)c1ccccc1 [ERKi]	14.3
COc1cc2c(cc1OCCCN1CCCC1)N=C(N)C21CCC1	76.1
